target: Beta-3 Adrenergic Receptor (Homo sapiens (Human), UniProt P13945); assay: Homogeneous Time-Resolved Fluorescence (HTRF) cAMP antagonist assay, IC50 determination; assay type: cell-based; details: CHO-K1 cells stably expressing recombinant receptor, isoproterenol at EC90
Method in brief: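 CHO-K1 cells stably expressing the recombinant receptor were preincubated with compound (10-point, 5-fold dilutions; top final typically 10 or 100 μM) in PBS with 1 mM IBMX, then stimulated with isoproterenol at its EC90 for 1 h at room temperature. cAMP was read by HTRF against an on-plate standard curve.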

Chain of Beta-3 Adrenergic Receptor (P13945 whole entry, species assumed): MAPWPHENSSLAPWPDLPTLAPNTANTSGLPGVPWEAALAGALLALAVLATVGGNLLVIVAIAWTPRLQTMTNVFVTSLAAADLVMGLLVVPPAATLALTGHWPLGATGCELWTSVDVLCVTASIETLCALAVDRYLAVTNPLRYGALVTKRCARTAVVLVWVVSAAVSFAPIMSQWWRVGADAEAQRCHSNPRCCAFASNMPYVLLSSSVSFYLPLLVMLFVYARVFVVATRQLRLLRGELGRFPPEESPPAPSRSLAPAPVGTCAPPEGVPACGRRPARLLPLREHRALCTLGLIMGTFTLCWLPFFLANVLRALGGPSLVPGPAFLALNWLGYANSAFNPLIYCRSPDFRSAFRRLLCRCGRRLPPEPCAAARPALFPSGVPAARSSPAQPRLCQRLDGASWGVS

| IC50 [nM] | SMILES |
| --- | --- |
| 10.9 | CNS(=O)(=O)c1cccc(OC[C@@H](O)CN[C@H]2COC3(CCN(S(=O)(=O)c4ccc5c(c4)N(C)CCO5)CC3)C2)c1 [Compound 300, 3-((S)-2-hydroxy-3-((R)-8-(4-methyl-3,4-dihydro-2H-benzo[b][1,4]oxazin-6-ylsulfonyl)-1-oxa-8-azaspiro[4.5]decan-3-ylamino)propoxy)-N-methylbenzenesulfonamide] |
| 1940 | CN(C)CCCNS(=O)(=O)c1cccc(OC[C@@H](O)CNC2COC3(CCN(S(=O)(=O)c4ccc5c(c4)N(C)CCO5)CC3)C2)c1 (stereo partly drawn) [Compound 316, N-(3-(dimethylamino)propyl)-3-((2S)-2-hydroxy-3-(8-(4-methyl-3,4-dihydro-2H-benzo[b][1,4]oxazin-6-ylsulfonyl)-1-oxa-8-azaspiro[4.5]decan-3-ylamino)propoxy)benzenesulfonamide] |
| 80.6 | CNS(=O)(=O)c1cccc(OC[C@@H](O)CNC2COC3(CCN(S(=O)(=O)c4ccc(-c5ccc(CN)cc5)cc4OC(F)(F)F)CC3)C2)c1 (stereo partly drawn) [Compound 403, 3-((2S)-3-(8-(4′-(aminomethyl)-3-(trifluoromethoxy)biphenyl-4-ylsulfonyl)-1-oxa-8-azaspiro[4.5]decan-3-ylamino)-2-hydroxypropoxy)-N-methylbenzenesulfonamide] |
| 160 | COCCNS(=O)(=O)c1cccc(OC[C@@H](O)CN[C@H]2COC3(CCN(S(=O)(=O)c4cnc5c(c4)N(C)CCO5)CC3)C2)c1 [Compound 459, 3-((S)-2-hydroxy-3-((R)-8-(1-methyl-2,3-dihydro-1H-pyrido[2,3-b][1,4]oxazin-7-ylsulfonyl)-1-oxa-8-azaspiro[4.5]decan-3-ylamino)propoxy)-N-(2-methoxyethyl)benzenesulfonamide] |
| 14.3 | NS(=O)(=O)c1cccc(OC[C@@H](O)CN[C@H]2COC3(CCN(S(=O)(=O)c4cnc5ccccc5c4O)CC3)C2)c1 [Compound 548, 3-((S)-2-hydroxy-3-((R)-8-(4-hydroxyquinolin-3-ylsulfonyl)-1-oxa-8-azaspiro[4.5]decan-3-ylamino)propoxy)benzenesulfonamide] |
| 7.22 | CNS(=O)(=O)c1cccc(OC[C@@H](O)CN[C@@H]2COC3(CCN(S(=O)(=O)c4cccc(-c5cc[nH]n5)c4)CC3)C2)c1 [Compound 295, 3-((S)-3-((S)-8-(3-(1H-pyrazol-3-yl)phenylsulfonyl)-1-oxa-8-azaspiro[4.5]decan-3-ylamino)-2-hydroxypropoxy)-N-methylbenzenesulfonamide] |
| 70.5 | CNS(=O)(=O)c1cccc(OC[C@@H](O)CNC2COC3(CCN(S(=O)(=O)c4cccc(-c5ccc(CNCC(F)(F)F)cc5)c4)CC3)C2)c1 (stereo partly drawn) [Compound 321, 3-((2S)-2-hydroxy-3-(8-(4′-((2,2,2-trifluoroethylamino)methyl)biphenyl-3-ylsulfonyl)-1-oxa-8-azaspiro[4.5]decan-3-ylamino)propoxy)-N-methylbenzenesulfonamide] |
| 20.8 | CNS(=O)(=O)c1cccc(OC[C@@H](O)CNC2COC3(CCN(S(=O)(=O)c4ccc(OC)cc4)CC3)C2)c1 (stereo partly drawn) [Compound 18, 3-((2S)-2-hydroxy-3-(8-(4-methoxyphenylsulfonyl)-1-oxa-8-azaspiro[4.5]decan-3-ylamino)propoxy)-N-methylbenzenesulfonamide] |
| 16.8 | CNS(=O)(=O)c1cccc(OC[C@@H](O)CNC2COC3(CCN(S(=O)(=O)c4cccc(Cl)c4Cl)CC3)C2)c1 (stereo partly drawn) [Compound 142, 3-((2S)-3-(8-(2,3-dichlorophenylsulfonyl)-1-oxa-8-azaspiro[4.5]decan-3-ylamino)-2-hydroxypropoxy)-N-methylbenzenesulfonamide] |
| 49.2 | CCC(C)NS(=O)(=O)c1cccc(OC[C@@H](O)CNC2COC3(CCN(S(=O)(=O)c4ccc5ccccc5c4)CC3)C2)c1 (stereo partly drawn) [Compound 10, N-sec-butyl-3-((2S)-2-hydroxy-3-(8-(naphthalen-2-ylsulfonyl)-1-oxa-8-azaspiro[4.5]decan-3-ylamino)propoxy)benzenesulfonamide] |
| 78.1 | CNS(=O)(=O)c1cccc(OC[C@@H](O)CNC2COC3(CCN(S(=O)(=O)C4CCCCC4)CC3)C2)c1 (stereo partly drawn) [Compound 125, 3-((2S)-3-(8-(cyclohexylsulfonyl)-1-oxa-8-azaspiro[4.5]decan-3-ylamino)-2-hydroxypropoxy)-N-methylbenzenesulfonamide] |
| 13 | CNS(=O)(=O)c1cccc(OC[C@@H](O)CNC2COC3(CCN(S(=O)(=O)c4ccc5c(c4)NC(=O)CO5)CC3)C2)c1 (stereo partly drawn) [Compound 126, 3-((2S)-2-hydroxy-3-(8-(3-oxo-3,4-dihydro-2H-benzo[b][1,4]oxazin-6-ylsulfonyl)-1-oxa-8-azaspiro[4.5]decan-3-ylamino)propoxy)-N-methylbenzenesulfonamide] |
| 149 | NS(=O)(=O)c1cccc(OC[C@@H](O)CN[C@H]2COC3(CCN(S(=O)(=O)c4cccc(Cl)c4)CC3)C2)c1 [Compound 591, 3-((S)-3-((R)-8-(3-chlorophenylsulfonyl)-1-oxa-8-azaspiro[4.5]decan-3-ylamino)-2-hydroxypropoxy)benzenesulfonamide] |
| 6.82 | CNS(=O)(=O)c1cccc(OC[C@@H](O)CNC2COC3(CCN(S(=O)(=O)c4ccc5c(c4)CCCO5)CC3)C2)c1 (stereo partly drawn) [Compound 41, 3-((2S)-3-(8-(chroman-6-ylsulfonyl)-1-oxa-8-azaspiro[4.5]decan-3-ylamino)-2-hydroxypropoxy)-N-methylbenzenesulfonamide] |
| 211 | CNS(=O)(=O)c1cccc(OC[C@@H](O)CN[C@H]2COC3(CCN(S(=O)(=O)c4ccc5[nH]ncc5c4OC)CC3)C2)c1 [Compound 508, 3-((S)-2-hydroxy-3-((R)-8-(4-methoxy-1H-indazol-5-ylsulfonyl)-1-oxa-8-azaspiro[4.5]decan-3-ylamino)propoxy)-N-methylbenzenesulfonamide] |
| 32.7 | CNS(=O)(=O)c1cccc(OC[C@@H](O)CN[C@H]2COC3(CCN(S(=O)(=O)c4cnc5c(F)cccc5c4O)CC3)C2)c1 [Compound 540, 3-((S)-3-((R)-8-(8-fluoro-4-hydroxyquinolin-3-ylsulfonyl)-1-oxa-8-azaspiro[4.5]decan-3-ylamino)-2-hydroxypropoxy)-N-methylbenzenesulfonamide] |
| 14.2 | CNS(=O)(=O)c1cccc(OC[C@@H](O)CNC2COC3(CCN(S(=O)(=O)c4cc(Cl)cc(Cl)c4)CC3)C2)c1 (stereo partly drawn) [Compound 138, 3-((2S)-3-(8-(3,5-dichlorophenylsulfonyl)-1-oxa-8-azaspiro[4.5]decan-3-ylamino)-2-hydroxypropoxy)-N-methylbenzenesulfonamide] |
| 16.5 | CCNS(=O)(=O)c1cccc(OC[C@@H](O)CNC2COC3(CCN(S(=O)(=O)c4cccc(-c5ccc(S(N)(=O)=O)cc5)c4)CC3)C2)c1 (stereo partly drawn) [Compound 211, 3′-(3-((S)-3-(3-(N-ethylsulfamoyl)phenoxy)-2-hydroxypropylamino)-1-oxa-8-azaspiro[4.5]decan-8-ylsulfonyl)biphenyl-4-sulfonamide] |
| 18 | CNS(=O)(=O)c1cccc(OC[C@@H](O)CNC2COC3(CCN(S(=O)(=O)c4cccc5ccccc45)CC3)C2)c1 (stereo partly drawn) [Compound 55, 3-((2S)-2-hydroxy-3-(8-(naphthalen-1-ylsulfonyl)-1-oxa-8-azaspiro[4.5]decan-3-ylamino)propoxy)-N-methylbenzenesulfonamide] |
| 196 | C[C@@H](CO)NS(=O)(=O)c1cccc(OC[C@@H](O)CN[C@H]2COC3(CCN(S(=O)(=O)c4cnc5c(c4)N(C)CCO5)CC3)C2)c1 [Compound 432, 3-((S)-2-hydroxy-3-((R)-8-(1-methyl-2,3-dihydro-1H-pyrido[2,3-b][1,4]oxazin-7-ylsulfonyl)-1-oxa-8-azaspiro[4.5]decan-3-ylamino)propoxy)-N—((S)-1-hydroxypropan-2-yl)benzenesulfonamide] |
| 23.1 | CNS(=O)(=O)c1cccc(OC[C@@H](O)CNC2COC3(CCN(S(=O)(=O)c4cc(Br)ccc4Cl)CC3)C2)c1 (stereo partly drawn) [Compound 259, 3-((2S)-3-(8-(5-bromo-2-chlorophenylsulfonyl)-1-oxa-8-azaspiro[4.5]decan-3-ylamino)-2-hydroxypropoxy)-N-methylbenzenesulfonamide] |
| 2180 | CC(=O)NS(=O)(=O)c1cccc(OC[C@@H](O)CNC2COC3(CCN(S(=O)(=O)c4ccc5ccccc5c4)CC3)C2)c1 (stereo partly drawn) [Compound 318, N-(3-((2S)-2-hydroxy-3-(8-(naphthalen-2-ylsulfonyl)-1-oxa-8-azaspiro[4.5]decan-3-ylamino)propoxy)phenylsulfonyl)acetamide] |
| 12.2 | CNS(=O)(=O)c1cccc(OC[C@@H](O)CNC2COC3(CCN(S(=O)(=O)c4cc(Cl)ccc4F)CC3)C2)c1 (stereo partly drawn) [Compound 144, 3-((2S)-3-(8-(5-chloro-2-fluorophenylsulfonyl)-1-oxa-8-azaspiro[4.5]decan-3-ylamino)-2-hydroxypropoxy)-N-methylbenzenesulfonamide] |
| 21.1 | CN(C)S(=O)(=O)c1cccc(OC[C@@H](O)CNC2COC3(CCN(S(=O)(=O)c4cccc(-c5ccc(S(N)(=O)=O)cc5)c4)CC3)C2)c1 (stereo partly drawn) [Compound 274, 3′-(3-((S)-3-(3-(N,N-dimethylsulfamoyl)phenoxy)-2-hydroxypropylamino)-1-oxa-8-azaspiro[4.5]decan-8-ylsulfonyl)biphenyl-4-sulfonamide] |
| 30.4 | CCOc1ccc(S(=O)(=O)N2CCC3(CC2)CC(NC[C@H](O)COc2cccc(S(=O)(=O)NC)c2)CO3)cn1 (stereo partly drawn) [Compound 445, 3-((2S)-3-(8-(6-ethoxypyridin-3-ylsulfonyl)-1-oxa-8-azaspiro[4.5]decan-3-ylamino)-2-hydroxypropoxy)-N-methylbenzenesulfonamide] |
| 8.84 | CNS(=O)(=O)c1cccc(OC[C@@H](O)CN[C@@H]2COC3(CCN(S(=O)(=O)c4cccc(-c5ccc(S(N)(=O)=O)cc5)c4)CC3)C2)c1 [Compound 291, 3′-((S)-3-((S)-2-hydroxy-3-(3-(N-methylsulfamoyl)phenoxy)propylamino)-1-oxa-8-azaspiro[4.5]decan-8-ylsulfonyl)biphenyl-4-sulfonamide] |
